Data published in patent US11584760B2, “Dithio ETP derivatives” (priority 2016, dated 2023).

Key:
A2058 (human melanoma) = test: in vitro cytotoxicity against A2058 cancer cell line; assay type: cell-based; conditions: A2058 cells; for in vitro cytotoxicity (activity against the cancer cell line): data shown in FIG. 2
Protocol: (§1) FIGS. 2A and 2B. In vitro cytotoxicity against two invasive cancer cell lines, DU145 (human prostate cancer) and A2058 (human melanoma) were determined for different analogs.
(§2) Four examples of compounds of structure II with R═—C(O)R or —C(O)OR′ were prepared as depicted in FIG. 2 and their in vitro cytotoxicity against two invasive cancer cell lines, DU145 (human prostate cancer) and A2058 (human melanoma) were determined.

[1] = system: DU145 (human prostate cancer); test: in vitro cytotoxicity against DU145 cancer cell line; assay type: cell-based; conditions: DU145 cells; for in vitro cytotoxicity (activity against the cancer cell line): data shown in FIG. 2
Protocol: as §1, §2

[2] = system: Hut 78 cells (cutaneous T-cell lymphoma, CTCL); test: CTCL tumor model: Hut 78 cells injected subcutaneously into NSG mice; assay type: in vivo; conditions: 20 mg/kg orally (gavage), 3 consecutive days/week; treatment started at tumor size approx. 200 mm^3; vs vehicle
Protocol: NSG (NOD. Cg-Prkdcscid II2rgtm1Wjl/SzJ) mice (5 to 7 weeks of age) were obtained from an-animal in-house breeding facility. The facility mice stock derived from mice obtained from Jackson Laboratory. All animal experiments were conducted in accordance with protocol approved by the City of Hope Beckman Research Institute IACUC.
CTCL tumor model: 3 million of Hut 78 cells in 100 μl (cells in PBS:Matrigel=1:1) injected subcutaneously.
The compound stock of 60 mg/ml was made in DMSO and diluted to 2 mg/ml in 30% Solutol. The compound was administered orally (by gavage) at 10 μl per gram of mice body weight in a dose of 20 mg/kg for 3 consecutive days/week.
100 μl of 3×10^6 Hut78 cells were injected subcutaneously into mice left flanks. The treatments were initiated when the tumor size reached approximately 200 mm^3. The compound or the vehicle alone were administered for 3 consecutive days/week.

CC(=O)S[C@@]1(C)C(=O)N2[C@@H](c3ccc4c(c3)OCO4)[C@@](C)(C#N)C[C@]2(SC(C)=O)C(=O)N1C (relative stereo) [LEO-16-1833, Rel-S, S′-((3S,6S,7S,8aS)-6-(benzo[d][1,3]dioxol-5-yl)-7-cyano-2,3,7-trimethyl-1,4-dioxohexahydropyrrolo[1,2-c]pyrazine-3,8a(6H)-diyl) diethanethioate]
activity compared with the corresponding ETP structure I (p=2) (A2058 (human melanoma); FIG. 2): nearly identical
in vitro cytotoxicity (activity against the cancer cell line) (A2058 (human melanoma)): good activity
activity compared with the corresponding ETP structure I (p=2) ([1]; FIG. 2): nearly identical
in vitro cytotoxicity (activity against the cancer cell line) [1]: good activity

CN1C(=O)[C@@]2(SC(=O)Cc3ccccc3)C[C@](C)(C#N)[C@H](c3ccc4c(c3)OCO4)N2C(=O)[C@]1(C)SC(=O)Cc1ccccc1 (relative stereo) [LEO-16-1835]
in vitro cytotoxicity (activity against the cancer cell line) (A2058 (human melanoma)): good activity
in vitro cytotoxicity (activity against the cancer cell line) [1]: good activity

CN1C(=O)[C@@]2(SC(=O)c3ccccc3)C[C@](C)(C#N)[C@H](c3ccc4c(c3)OCO4)N2C(=O)[C@]1(C)SC(=O)c1ccccc1 (relative stereo) [LEO-16-1836]
in vitro cytotoxicity (activity against the cancer cell line) (A2058 (human melanoma)): good activity
in vitro cytotoxicity (activity against the cancer cell line) [1]: good activity

CC(=O)S[C@@]1(C)C(=O)N2[C@@H](c3ccc4c(c3)OCO4)[C@@](C)(C#N)C[C@]2(SC(C)=O)C(=O)N1C [LEO-16-1845, S,S′-((3S,6S,7S,8aS)-6-(benzo[d][1,3]dioxol-5-yl)-7-cyano-2,3,7-trimethyl-1,4-dioxohexahydropyrrolo[1,2-c]pyrazine-3,8a(6H)-diyl) diethanethioate]
inhibition of the tumor size [2]: 86.5%
